Laboratory results taken from patent publication US20240043435A1, “TYK-2 INHIBITOR” (BEIGENE, LTD., priority 2020, published 2024).

What was measured:
[1] = molecular target: T1, TYK2-JH2 (aa 575-869, in-house) protein (Homo sapiens, UniProt P29597); test: TYK2-JH2 biochemical assay (HTRF probe displacement); assay type: binding; conditions: Biochemical assay; read-out: TYK2-JH2 IC50
T1 construct: TYK2-JH2 (aa 575-869, in-house) protein; made in house
Summary of the method: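 HTRF probe-displacement format: compound dilutions (10 points, 5-fold, from 500 uM in DMSO at 500×) were combined with 0.2 nM TYK2-JH2 protein for 0.5 h at room temperature in HEPES pH 7.5 buffer with MgCl2, BSA, DTT and Brij-35. Percent inhibition came from the 615/665 nm fluorescence ratio, fitted to a four-parameter logistic for IC50.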

pSTAT5/GM-CSF = pSTAT5/GM-CSF cellular assay (JAK2 selectivity); assay type: cell-based; conditions: for Selectivity fold (TYK2/JAK2): pSTAT5/GM-CSF IC50 over pSTAT4/IL-12 IC50
[2] = test system: JAK2, TYK2/p-STAT4 (Tyr693) activated by IL-12 in NK-92 cell line; test: IL-12-JAK2, TYK2/p-STAT4 (Tyr693) inhibition IC50 cellular assay; assay type: cell-based; conditions: NK92, Cellular assay; read-out: pSTAT4/IL-12 IC50
Summary of the method: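 p-STAT4 (Tyr693) in lysates was measured by AlphaLISA SureFire Ultra after a 30 min IL-12 challenge (40 ng/ml final) at 37° C. Overnight-starved, IL-2-free NK-92 cells had been pretreated 1 h with compound at 10000 to 0.61 nM (4-fold, 8 points). IC50 values came from four-parameter logistic fitting.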

T1 sequence (P29597 575-869): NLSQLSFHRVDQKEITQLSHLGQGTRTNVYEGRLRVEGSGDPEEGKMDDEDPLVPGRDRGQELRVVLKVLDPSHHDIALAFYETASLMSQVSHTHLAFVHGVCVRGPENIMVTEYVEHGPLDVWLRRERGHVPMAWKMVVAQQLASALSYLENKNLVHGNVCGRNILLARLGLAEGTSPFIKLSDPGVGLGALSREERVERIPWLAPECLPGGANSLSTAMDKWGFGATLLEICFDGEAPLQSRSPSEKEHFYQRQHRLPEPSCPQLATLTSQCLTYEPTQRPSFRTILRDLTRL

IC50 [1]	IC50 (pSTAT5/GM-CSF)	IC50 [2]	Structure (SMILES)	Selectivity fold (TYK2/JAK2) (pSTAT5/GM-CSF)
0.015 nM	> 10000 nM	0.882 nM	COCc1cc(Nc2cc(NC(C)=O)ncc2-c2ccn(C)n2)nc(S(C)(=O)=O)c1 [Example J19, N-(4-((4-(methoxymethyl)-6-(methylsulfonyl)pyridin-2-yl)amino)-5-(1-methyl-1H-pyrazol-3-yl)pyridin-2-yl)acetamide]	>1137 fold
0.026 nM	> 10000 nM	3 nM	CC(=O)Nc1cc(Nc2cc(OCC#N)cc(S(C)(=O)=O)n2)c(-c2ccn(C)n2)cn1 [Example J20, N-(4-((4-(cyanomethoxy)-6-(methylsulfonyl)pyridin-2-yl)amino)-5-(1-methyl-1H-pyrazol-3-yl)pyridin-2-yl)acetamide]	>3333 fold
0.017 nM	> 10000 nM	0.72 nM	COc1cc(Nc2cc(NC(C)=O)ncc2-c2ccn(C)n2)nc(S(C)(=O)=O)c1 [Example J21, N-(4-((4-methoxy-6-(methylsulfonyl)pyridin-2-yl)amino)-5-(1-methyl-1H-pyrazol-3-yl)pyridin-2-yl)acetamide]	>13888 fold
0.037 nM	> 10000 nM	1.93 nM	CC(=O)Nc1cc(Nc2cc(OC3COC3)cc(S(C)(=O)=O)n2)c(-c2ccn(C)n2)cn1 [Example J22, N-(5-(1-methyl-1H-pyrazol-3-yl)-4-((6-(methylsulfonyl)-4-(oxetan-3-yloxy)pyridin-2-yl)amino)pyridin-2-yl)acetamide]	>5181 fold
0.044 nM	1350 nM	0.862 nM	COc1ccc(S(C)(=O)=O)nc1Nc1cc(NC(C)=O)ncc1-c1ccn(C)n1 [Example J23, N-(4-((3-methoxy-6-(methylsulfonyl)pyridin-2-yl)amino)-5-(1-methyl-1H-pyrazol-3-yl)pyridin-2-yl)acetamide]	1570 fold
0.028 nM	> 10000 nM	6.05 nM	CC(=O)Nc1cc(Nc2cc(OCC(C)O)cc(S(C)(=O)=O)n2)c(-c2ccn(C)n2)cn1 (centres unmarked) [Example J24, N-(4-((4-(2-hydroxypropoxy)-6-(methylsulfonyl)pyridin-2-yl)amino)-5-(1-methyl-1H-pyrazol-3-yl)pyridin-2-yl)acetamide]	>1652 fold
0.025 nM	> 10000 nM	2.91 nM	CC(=O)Nc1cc(Nc2cc(OCC3COC3)cc(S(C)(=O)=O)n2)c(-c2ccn(C)n2)cn1 [Example J25, N-(5-(1-methyl-1H-pyrazol-3-yl)-4-((6-(methylsulfonyl)-4-(oxetan-3-ylmethoxy)pyridin-2-yl)amino)pyridin-2-yl)acetamide]	>3436 fold
0.023 nM	> 10000 nM	5.5 nM	CC(=O)Nc1cc(Nc2cc(C#N)cc(S(C)(=O)=O)n2)c(-c2ccn(C)n2)cn1 [Example J26, N-(4-((4-cyano-6-(methylsulfonyl)pyridin-2-yl)amino)-5-(1-methyl-1H-pyrazol-3-yl)pyridin-2-yl)acetamide]	>1818 fold
0.04 nM	> 10000 nM	0.439 nM	CC(=O)Nc1cc(Nc2nc(S(C)(=O)=O)ccc2C)c(-c2ccn(C)n2)cn1 [Example J27, N-(5-(1-methyl-1H-pyrazol-3-yl)-4-((3-methyl-6-(methylsulfonyl)pyridin-2-yl)amino)pyridin-2-yl)acetamide]	>22779 fold
0.053 nM	> 10000 nM	3.14 nM	CC(=O)Nc1cc(Nc2cccc(S(=O)(=O)C3CC3)n2)c(-c2ccn(C)n2)cn1 [Example J28, N-(4-((6-(cyclopropylsulfonyl)py-ridin-2-yl)amino)-5-(1-methyl-1H-pyrazol-3-yl)pyridin-2-yl)acetamide]	>3184 fold
0.045 nM	> 10000 nM	12.4 nM	CC(=O)Nc1cc(Nc2cccc(S(=O)(=O)C(C)C)n2)c(-c2ccn(C)n2)cn1 [Example J29, N-(4-((6-(isopropylsulfonyl)pyri-din-2-yl)amino)-5-(1-methyl-1H-pyrazol-3-yl)pyridin-2-yl)acetamide]	>805 fold
0.054 nM	> 10000 nM	4.82 nM	CC(=O)Nc1cc(Nc2cc(F)cc(S(C)(=O)=O)c2)c(-c2ccn(C)n2)cn1 [Example J30, N-(4-((3-fluoro-5-(methylsulfonyl)phenyl)amino)-5-(1-methyl-1H-pyrazol-3-yl)pyridin-2-yl)acetamide]	>2074 fold
0.076 nM	> 10000 nM	15 nM	CC(=O)Nc1cc(Nc2cc(Cl)cc(S(C)(=O)=O)c2)c(-c2ccn(C)n2)cn1 [Example J31, N-(4-((3-chloro-5-(methylsulfonyl)phenyl)amino)-5-(1-methyl-1H-pyrazol-3-yl)pyridin-2-yl)acetamide]	>668 fold
0.079 nM	> 10000 nM	8.79 nM	CC(=O)Nc1cc(Nc2cc(C(F)F)cc(S(C)(=O)=O)c2)c(-c2ccn(C)n2)cn1 [Example J32, N-(4-((3-(difluoromethyl)-5-(methylsulfonyl)phenyl)amino)-5-(1-methyl-1H-pyrazol-3-yl)pyridin-2-yl)acetamide]	>1137 fold
0.067 nM	> 10000 nM	9.69 nM	COCc1cc(Nc2cc(NC(C)=O)ncc2-c2ccn(C)n2)cc(S(C)(=O)=O)c1 [Example J34, N-(4-((3-(methoxymethyl)-5-(methylsulfonyl)phenyl)amino)-5-(1-methyl-1H-pyrazol-3-yl)pyridin-2-yl)acetamide]	>1031 fold
0.036 nM	> 10000 nM	8.13 nM	COCCOc1cc(Nc2cc(NC(C)=O)ncc2-c2ccn(C)n2)cc(S(C)(=O)=O)c1 [Example J35, N-(4-((3-(2-methoxyethoxy)-5-(methylsulfonyl)phenyl)amino)-5-(1-methyl-1H-pyrazol-3-yl)pyridin-2-yl)acetamide]	>1230 fold
0.043 nM	> 10000 nM	5.05 nM	CC(=O)Nc1cc(Nc2cc(OC3CC3)cc(S(C)(=O)=O)c2)c(-c2ccn(C)n2)cn1 [Example J36, N-(4-((3-cyclopropoxy-5-(methylsulfonyl)phenyl)amino)-5-(1-methyl-1H-pyrazol-3-yl)pyridin-2-yl)acetamide]	>1980 fold
0.024 nM	> 10000 nM	1.98 nM	CC(=O)Nc1cc(Nc2cc(-c3ccccc3)cc(S(C)(=O)=O)n2)c(-c2ccn(C)n2)cn1 [Example J38, N-(5-(1-methyl-1H-pyrazol-3-yl)-4-((6-(methylsulfonyl)-4-phenylpyridin-2-yl)amino)pyridin-2-yl)acetamide]	>5050 fold
0.036 nM	> 10000 nM	10.7 nM	CC(=O)Nc1cc(Nc2cc(Oc3ccccc3)cc(S(C)(=O)=O)n2)c(-c2ccn(C)n2)cn1 [Example J39, N-(5-(1-methyl-1H-pyrazol-3-yl)-4-((6-(methylsulfonyl)-4-phenoxypyridin-2-yl)amino)pyridin-2-yl)acetamide]	>935 fold
0.029 nM	> 10000 nM	0.326 nM	CC(=O)Nc1cc(Nc2cc(Cl)cc(S(C)(=O)=O)n2)c(-c2ccn(C)n2)cn1 [Example J40, N-(4-((4-chloro-6-(methylsulfonyl)pyridin-2-yl)amino)-5-(1-methyl-1H-pyrazol-3-yl)pyridin-2-yl)acetamide]	>30674 fold
0.027 nM	> 10000 nM	2.98 nM	COC(C)c1cc(Nc2cc(NC(C)=O)ncc2-c2ccn(C)n2)nc(S(C)(=O)=O)c1 (centres unmarked) [Example J41, N-(4-((4-(1-methoxyethyl)-6-(methylsulfonyl)pyridin-2-yl)amino)-5-(1-methyl-1H-pyrazol-3-yl)pyridin-2-yl)acetamide]	>3355 fold

Structure (SMILES)	IC50 [1]	IC50 (pSTAT5/GM-CSF)	IC50 [2]	Selectivity fold (TYK2/JAK2) (pSTAT5/GM-CSF)
COC1CC(Oc2cc(Nc3cc(NC(C)=O)ncc3-c3ccn(C)n3)nc(S(C)(=O)=O)c2)C1 (centres unmarked) [Example J18, N-(4-((4-(3-methoxycyclobutoxy)-6-(methylsulfonyl)pyridin-2-yl)amino)-5-(1-methyl-1H-pyrazol-3-yl)pyridin-2-yl)acetamide]	0.028 nM	> 10000 nM	0.399 nM	>25062 fold
CC(=O)Nc1cc(Nc2cc(O[C@H]3C[C@H](O)C3)cc(S(C)(=O)=O)c2)c(-c2ccn(C)n2)cn1 [Example J37, N-(4-((3-((trans)-3-hydroxycyclobutoxy)-5-(methylsulfonyl)phenyl)amino)-5-(1-methyl-1H-pyrazol-3-yl)pyridin-2-yl)acetamide]	0.035 nM	> 10000 nM	19.1 nM	>523 fold
